Laboratory results from ChEMBL document CHEMBL1145142, “Synthesis and activity of 8-substituted benzo[c]quinolizin-3-ones as dual inhibitors of human 5alpha-reductases 1 and 2” (Bioorg Med Chem Lett, 2005).

Key:
Type in all cases: cell-based
[1] = molecular target: T1, 3-oxo-5-alpha-steroid 4-dehydrogenase 2 (Homo sapiens, UniProt P31213); assay: Inhibitory concentration against human steroid 5-alpha-reductase 2 receptor expressed in CHO 1829 cells
T1 sequence (P31213 whole entry): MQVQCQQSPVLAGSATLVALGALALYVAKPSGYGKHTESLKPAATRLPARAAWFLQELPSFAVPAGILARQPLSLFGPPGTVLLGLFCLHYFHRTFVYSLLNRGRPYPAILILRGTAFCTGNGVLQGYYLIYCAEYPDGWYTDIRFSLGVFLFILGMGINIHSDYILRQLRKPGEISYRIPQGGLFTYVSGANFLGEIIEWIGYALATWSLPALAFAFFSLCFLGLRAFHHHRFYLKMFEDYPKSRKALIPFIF

[2] = molecular target: T1, 3-oxo-5-alpha-steroid 4-dehydrogenase 2; assay: Inhibitory concentration against human steroid 5-alpha-reductase 2 receptor expressed in CHO 1829 cells; la= low activity
[3] = molecular target: T2, 3-oxo-5-alpha-steroid 4-dehydrogenase 1 (Homo sapiens, UniProt P18405); assay: Inhibitory concentration against human steroid 5-alpha-reductase I receptor expressed in CHO 1827 cells
T2 sequence (P18405 whole entry): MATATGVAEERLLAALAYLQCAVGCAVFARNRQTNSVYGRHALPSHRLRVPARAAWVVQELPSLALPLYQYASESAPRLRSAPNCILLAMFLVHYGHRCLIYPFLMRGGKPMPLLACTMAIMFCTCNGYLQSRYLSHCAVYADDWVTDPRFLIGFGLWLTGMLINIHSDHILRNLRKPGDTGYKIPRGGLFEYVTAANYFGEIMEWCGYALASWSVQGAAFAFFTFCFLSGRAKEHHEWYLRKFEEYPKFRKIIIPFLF

[4] = molecular target: T2, 3-oxo-5-alpha-steroid 4-dehydrogenase 1; assay: Inhibitory concentration against human steroid 5-alpha-reductase I receptor expressed in CHO 1827 cells; la= low activity

Structure (SMILES) | IC50 [1] [nM] | IC50 [2] | IC50 [3] [nM] | IC50 [4]
COC(=O)c1cccc(OC(=O)c2ccc3c(c2)CCC2=C(C)C(=O)CCN23)c1 | 467 |  |  | 
CC1=C2CCc3cc(C(=O)OCc4ccccc4)ccc3N2CCC1=O | 9500 |  |  | 
COC(=O)c1ccc(OC(=O)c2ccc3c(c2)CCC2=C(C)C(=O)CCN23)cc1 | 584 |  | 129 | 
CC1=C2CCc3cc(C(=O)Oc4ccc(F)cc4)ccc3N2CCC1=O | 119 |  | 93 | 
CC1=C2CCc3cc(C(=O)Oc4ccc(Cl)cc4)ccc3N2CCC1=O |  | Low activity | 1400 | 
CCN(CC)C(=O)c1ccc(OC(=O)c2ccc3c(c2)CCC2=C(C)C(=O)CCN23)cc1 | 372 |  | 463 | 
CCOc1ccc(OC(=O)c2ccc3c(c2)CCC2=C(C)C(=O)CCN23)cc1 | 3300 |  | 209 | 
CC(=O)Nc1ccc(OC(=O)c2ccc3c(c2)CCC2=C(C)C(=O)CCN23)cc1 | 255 |  | 707 | 
COc1ccc(OC(=O)c2ccc3c(c2)CCC2=C(C)C(=O)CCN23)cc1 | 1200 |  | 116 | 
CCCNC(=O)c1ccc(OC(=O)c2ccc3c(c2)CCC2=C(C)C(=O)CCN23)cc1 | 665 |  | 268 | 
CC1=C2CCc3cc(C(=O)Oc4ccccc4C(F)(F)F)ccc3N2CCC1=O | 368 |  | 42 | 
CC1=C2CCc3cc(C(=O)Oc4cccc(F)c4)ccc3N2CCC1=O | 134 |  | 160 | 
CC1=C2CCc3cc(C(=O)Oc4ccc(C(F)(F)F)cc4)ccc3N2CCC1=O | 1200 |  | 149 | 
CC1=C2CCc3cc(C(=O)Nc4ccc(C)cc4)ccc3N2CCC1=O |  | Low activity | 1000 | 
CCN(CC)C(=O)c1ccc2c(c1)CCC1=C(C)C(=O)CCN12 |  | Low activity |  | Low activity
CC1=C2CCc3cc(C(=O)Oc4cccc(C(F)(F)F)c4)ccc3N2CCC1=O | 1000 |  | 271 | 
CC1=C2CCc3cc(C(=O)Oc4ccc(C(N)=O)cc4)ccc3N2CCC1=O | 308 |  | 361 | 

More lines, now with the values ahead:

IC50 [1] [nM] | IC50 [2] | IC50 [3] [nM] | IC50 [4] | Structure (SMILES)
295 |  |  |  | CC1=C2CCc3cc(C(=O)Oc4ccccc4)ccc3N2CCC1=O
4800 |  |  |  | CCOC(=O)c1ccc2c(c1)CCC1=C(C)C(=O)CCN12
2100 |  |  |  | COC(=O)c1ccc2c(c1)CCC1=C(C)C(=O)CCN12
 | Low activity |  |  | CC1=C2CCc3cc(C(=O)Oc4ccc(C(C)(C)C)cc4)ccc3N2CCC1=O
< 50 |  |  |  | CC1=C2CCc3cc(C(=O)OC(C)C)ccc3N2CCC1=O
553 |  | 102 |  | CC1=C2CCc3cc(C(=O)Oc4ccc(C)cc4)ccc3N2CCC1=O
 | Low activity |  | Low activity | CC1=C2CCc3cc(C(=O)NC(C)(C)C)ccc3N2CCC1=O
 | Low activity | 6990 |  | CC1=C2CCc3cc(C(=O)OCCCO)ccc3N2CCC1=O
 | Low activity | 225 |  | CC1=C2CCc3cc(C(=O)Oc4ccc(C(=O)NC(C)(C)C)cc4)ccc3N2CCC1=O
801 |  | 272 |  | CC1=C2CCc3cc(C(=O)Oc4ccc(N)cc4)ccc3N2CCC1=O
 | Low activity |  |  | CC1=C2CCc3cc(C(=O)OC(C)(C)C)ccc3N2CCC1=O
 | Low activity |  | Low activity | CC1=C2CCc3cc(C(=O)N(C(C)C)C(C)C)ccc3N2CCC1=O
166 |  | 138 |  | CC1=C2CCc3cc(C(=O)Oc4ccccc4F)ccc3N2CCC1=O
